Values quoted from earlier work as cited in patent publication US10589003B2, “Methods for coating surfaces with antimicrobial agents” (The Board of Regents of the University of Texas System, priority 2005, dated 2020).

Test system: Pseudomonas aeruginosa
Settings: agent on its own; gentian violet after impregnating polymer surfaces incl. polyvinylchloride

For `[H]/N=C(\N/C(=N/[H])NCCCCCCNC(=N)NC(=N)Nc1ccc(Cl)cc1)Nc1ccc(Cl)cc1` [chlorhexidine], the “activity against Pseudomonas aeruginosa” value is given as “not highly active”.

For `CN(C)c1ccc(C(=C2C=CC(=[N+](C)C)C=C2)c2ccc(N(C)C)cc2)cc1` [gentian violet], the “activity against Pseudomonas aeruginosa” value is listed as “no activity”.
